Measurements taken from patent US20260034103A1, “COMPOSITIONS AND METHODS FOR IMPROVING MEMORY AND COGNITION” (priority 2022, published 2026).

Tests used:
[1] = tested on: Sprague Dawley rat hippocampal slices; assay: Ex vivo electrophysiology in rat hippocampal slices: mEPSP frequency; type: cell-based
From the text: (§1) The effect of compound 1 to enhance mEPSPs may be dependent on the influx of extracellular calcium.

[2] = tested on: Sprague Dawley rat hippocampal slices; assay: Ex vivo electrophysiology: paired-pulse ratio (short-term plasticity), CA1 with Schaffer collateral stimulation; type: cell-based; details: 10 nM and 100 nM; interstimulus intervals 50-400 ms; vs vehicle 0.01% DMSO
Method: Response is Stratum radiatum of area CA1 of the hippocampus with Schaffer collateral stimulation. Statistical differences correspond to the ones observed between Compound 1 10 nM and Vehicle groups.
Statistical differences correspond to the ones observed between Compound 1 100 nM and Vehicle groups.
as §1

[3] = tested on: Sprague Dawley rat hippocampal slices; assay: Ex vivo electrophysiology: short-lasting long-term potentiation (S-LTP) at hippocampal CA1 synapses; type: cell-based; details: 10 nM; single 1-sec train of 100-Hz stimulation
From the text: Time-point 0 represents delivery of HFS. Slopes of fEPSP are normalized to baseline and plotted against time.
as §1

Wistar rats = assay: Novel object recognition test, subchronic PCP-induced cognitive impairment; type: in vivo, rat
Method: The total exploration time of two identical objects in the acquisition trial was measured manually and indicated as the mean±SEM (n=10). No statistical difference was found in the total exploration time among the different groups by one-way ANOVA (P=0.340).
NDI was calculated using the following equation: novel object interaction time/total interaction time×100(%). Data are represented as the mean±SEM (n=10). Significant difference from control group was indicated by ***P<0.001 (Student's t-test). Significant differences from PCP-treated group were indicated by ##P<0.01, #P<0.05 (Dunnett test). Significant difference from PCP-treated group were indicated by ††P<0.01 (Student's t-test).
Exploration time of each object in retention trial was measured manually and presented as the mean±SEM (n=10). Significant differences from familiar object interaction were indicated by ***P<0.001, **P<0.01 (paired t-test).
A novel object recognition test was conducted to investigate the effect of SP-624 on subchronic PCP-induced cognitive impairment in Wistar rats. Clozapine was used as a positive control.

rats = assay: Freely behaving rodent model of long-term potentiation (LTP); type: in vivo, rat; details: 0.01 and 0.1 mg/kg IV
Method: Amplitudes of fEPSP are normalized to baseline and plotted against time.
A freely behaving rodent model of long-term potentiation (LTP), a frequently studied form of synaptic plasticity, was employed. LTP is a persistent increase in the strength of synaptic connections between neurons, and is a cellular mechanism widely considered to underlie the processes of learning and memory. At 0.01 and 0.1 mg/kg IV compound 1 increased LTP compared to vehicle controls (FIGS. 10-11).

[4] = tested on: adult subjects with major depressive disorder (MDD); assay: Phase 2 clinical trial in MDD: QIDS-SR Item #10 Concentration/Decision Making; type: in vivo, human; set-up: key to QIDS-SR Item #10 score, Median / QIDS-SR Item #10 score, Min / QIDS-SR Item #10 score, Max: QIDS-SR Item 10 scored 0 (no change) to 3 (cannot concentrate/decide); details: 20 mg/day; for QIDS-SR Item #10 Change from Baseline, Max / QIDS-SR Item #10 Change from Baseline, Mean (SD) / QIDS-SR Item #10 Change from Baseline, Median / QIDS-SR Item #10 Change from Baseline, Min / QIDS-SR Item #10 score, Max / QIDS-SR Item #10 score, Mean (SD) / QIDS-SR Item #10 score, Median / QIDS-SR Item #10 score, Min: mITT, Females
Method: (§2) A Phase 2, multicenter, double-blind, randomized, placebo-controlled study of the safety and efficacy of SP-624 in the treatment of adult subjects with major depressive disorder (MDD) as defined by the Diagnostic and Statistical Manual of Mental Disorders, Fifth Edition (DSM-5) was carried out. Following the successful completion of a Screening Phase, subjects were randomized to one of two treatment groups in a 1:1 ratio and received Compound 1 (SP-624) or placebo over a treatment period of four weeks (Treatment Group #1: SP-624 20 mg/day; Treatment Group #2: Placebo).
(§3) Prior to initiating the 4-week treatment period, subjects completed a Screening/Baseline period of up to 28 days, during which time all screening assessments were performed, and any current depression medications discontinued. All screening assessments were completed before discontinuing any current depression medications. Subjects returned for a Baseline Visit to complete efficacy and safety assessments. During the treatment period, subjects returned to the investigative site to complete efficacy and safety assessments at the end of Weeks 1, 2, 3, and 4. After the final dose of study drug, subjects completed a follow-up period of two weeks and returned at the end of Weeks 5 and 6. Subjects may be treated with anti-depressant medications according to physician recommendations after completion of the Week 5 Visit.
(§4) Each dose of Compound 1 was supplied as two capsules, each containing 10 mg of active pharmaceutical ingredient (API). Matching placebo capsules identical in shape and color to the active capsules were used.
The study included several measurements related to cognitive function. The first is the QIDS-SR) Item #10 Concentration/Decision Making. The answer scale is: 0—There is no change in my usual capacity to concentrate or make decisions; 1—I occasionally feel indecisive or find that my attention wanders; 2—Most of the time, I struggle to focus my attention or to make decisions; 3—I cannot concentrate well enough to read or cannot make even minor decisions.

[5] = tested on: adult subjects with major depressive disorder (MDD); assay: Phase 2 clinical trial in MDD: HAM-D Item #17 Retardation; type: in vivo, human; details: 20 mg/day; for HAM-D Item #17 Retardation Change From Baseline, Max / HAM-D Item #17 Retardation Change From Baseline, Mean (SD) / HAM-D Item #17 Retardation Change From Baseline, Median / HAM-D Item #17 Retardation Change From Baseline, Min / HAM-D Item #17 Retardation score, Max / HAM-D Item #17 Retardation score, Mean (SD) / HAM-D Item #17 Retardation score, Median / HAM-D Item #17 Retardation score, Min: mITT, Females
Method: as §2, §3, §4
The second cognitive function measurement is HAM-D Item #17 Retardation (slowness of thought and speech, impaired ability to concentrate, decreased motor activity). The answer scale is: 0—Normal speech and thought; 1—Slight retardation at interview (mild psychomotor retardation); 2—Obvious retardation at interview (moderate, some difficulty with interview, noticeable pauses and slowness of thought); 3—Interview difficult (severe psychomotor retardation, very long pauses); 4—Complete stupor (extreme retardation, interview barely possible).

SMILES: COC1=CC(=O)C[C@@H](C)[C@]12Oc1c(Cl)c(-c3nnc(C)o3)cc(OC)c1C2=O [Compound 1, (2S,6′R)-7-Chloro-2′,4-dimethoxy-6′-methyl-6-(5-methyl-1,3,4-oxadiazol-2-yl)-3H-spiro[1-benzofuran-2,1′-cyclohex[2]ene]-3,4′-dione]
- frequency of miniature excitatory post-synaptic potentials (mEPSPs) in the hippocampus [1]: increase the frequency
- short-term plasticity (paired-pulse ratio) [2]: enhanced short-term plasticity
- short-lasting long-term potentiation (S-LTP) [3]: tended to increase
- sub-chronic PCP-induced cognitive deficits in the NDI (Wistar rats; 0.01 mg/kg): not
- sub-chronic PCP-induced cognitive deficits in the NDI (Wistar rats; 0.1 and 1 mg/kg): significantly attenuated
- LTP compared to vehicle controls (rats): increased LTP
- QIDS-SR Item #10 Change from Baseline, Max ([4]; Week 2): 1
- QIDS-SR Item #10 Change from Baseline, Mean (SD) ([4]; Week 2): −0.3 (0.71)
- QIDS-SR Item #10 Change from Baseline, Median ([4]; Week 2): 0.0
- QIDS-SR Item #10 Change from Baseline, Min ([4]; Week 2): −3
- QIDS-SR Item #10 score, Max ([4]; Week 2): 3
- QIDS-SR Item #10 score, Mean (SD) ([4]; Week 2): 1.5 (0.82)
- QIDS-SR Item #10 score, Median ([4]; Week 2): 2.0
- QIDS-SR Item #10 score, Min ([4]; Week 2): 0
- QIDS-SR Item #10 Change from Baseline, Max ([4]; Week 4): 1
- QIDS-SR Item #10 Change from Baseline, Mean (SD) ([4]; Week 4): −0.6 (0.80)
- QIDS-SR Item #10 Change from Baseline, Median ([4]; Week 4): 0.0
- QIDS-SR Item #10 Change from Baseline, Min ([4]; Week 4): −3
- QIDS-SR Item #10 score, Max ([4]; Week 4): 3
- QIDS-SR Item #10 score, Mean (SD) ([4]; Week 4): 1.2 (0.86)
- QIDS-SR Item #10 score, Median ([4]; Week 4): 1.0
- QIDS-SR Item #10 score, Min ([4]; Week 4): 0
- QIDS-SR Item #10 Concentration/Decision Making, improvement in score vs placebo ([4]; by week 4 of treatment): greater improvement in score
- HAM-D Item #17 Retardation Change From Baseline, Max ([5]; Week 2): 2
- HAM-D Item #17 Retardation Change From Baseline, Mean (SD) ([5]; Week 2): −0.2 (0.79)
- HAM-D Item #17 Retardation Change From Baseline, Median ([5]; Week 2): 0
- HAM-D Item #17 Retardation Change From Baseline, Min ([5]; Week 2): −2
- HAM-D Item #17 Retardation score, Max ([5]; Week 2): 2
- HAM-D Item #17 Retardation score, Mean (SD) ([5]; Week 2): 0.6 (0.71)
- HAM-D Item #17 Retardation score, Median ([5]; Week 2): 0
- HAM-D Item #17 Retardation score, Min ([5]; Week 2): 0
- HAM-D Item #17 Retardation Change From Baseline, Max ([5]; Week 4): 1
- HAM-D Item #17 Retardation Change From Baseline, Mean (SD) ([5]; Week 4): −0.4 (0.82)
- HAM-D Item #17 Retardation Change From Baseline, Median ([5]; Week 4): 0
- HAM-D Item #17 Retardation Change From Baseline, Min ([5]; Week 4): −2
- HAM-D Item #17 Retardation score, Max ([5]; Week 4): 2
- HAM-D Item #17 Retardation score, Mean (SD) ([5]; Week 4): 0.4 (0.55)
- HAM-D Item #17 Retardation score, Median ([5]; Week 4): 0
- HAM-D Item #17 Retardation score, Min ([5]; Week 4): 0
- HAM-D Item #17 Retardation, improvement in score vs placebo ([5]; by week 4 of treatment): greater improvement in score
